Experimental findings from patent US5541190A, “Benzo(F)quinolinones” (priority 1995, dated 1996) are described below.

In this assay the target is T1, 5α-reductase (Homo sapiens, UniProt P18405).
T1 construct: host or cells: Hs68 human genital skin fibroblasts
T1 sequence (P18405 1-259): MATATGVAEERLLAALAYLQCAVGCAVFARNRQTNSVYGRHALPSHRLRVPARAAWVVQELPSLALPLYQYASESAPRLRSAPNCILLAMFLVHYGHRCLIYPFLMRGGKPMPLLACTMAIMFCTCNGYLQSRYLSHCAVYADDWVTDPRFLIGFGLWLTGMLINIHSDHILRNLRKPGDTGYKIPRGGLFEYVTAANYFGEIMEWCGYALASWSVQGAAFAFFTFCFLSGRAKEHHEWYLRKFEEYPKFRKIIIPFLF
The experiment in a line: Inhibition of 5α-reductase activity (testosterone to 5α-dihydrotestosterone conversion) in Hs68 human genital skin fibroblasts. In kind it is cell-based. Conditions: 12 μM testosterone substrate, four hours; for inhibition at 0.316 µM: 0.316 μM test compound; for inhibition at 15 µM: 15.00 μM test compound; for inhibition at 1 µM: 1.00 μM test compound. How it is done: Cell Culture:5α-Reductase activity was measured using Hs68 human genital skin fibroblasts which were originally purchased from the American Type Culture Collection (Rockville, Md.). The cells were grown in Dulbecco's Modified Eagle's Medium (DMEM) plus 10% stripped fetal bovine serum which was supplemented with amphotericin B (0.25 mg/ml) and gentamicin (25.0 mg/ml) (GIBCO, Grand Island, N.Y.). The serum was stripped of endogenous steroids by incubation with dextran-coated charcoal prior to its addition to the media. The cells were maintained at 37° C. in an atmosphere of 95% air, 5% CO2 and were passaged every 7-10 days by exposure to a trypsin-EDTA solution (0.025% trypsin, 0.265 mM EDTA). Prior to the assay the Hs68 cells were harvested and plated in Falcon 6-well plates (Becton Dickinson Labware, Lincoln Park, N.J.) at a density of 6×10^4 cells per well. The cells were allowed to grow for 4-5 days or until they reached approximately 80% confluence.
Assay Method I:The substrate was prepared by dissolving unlabeled testosterone (Sigma Chemical Co., St. Louis, Mo.) in absolute ethanol followed by the addition of [7-^3 H (N)]-testosterone (23.3 Ci/mmole, New England Nuclear, Boston, Mass.). The steroid solution was taken to dryness under a stream of nitrogen and then reconstituted in media.
Assay Method II:The substrate used for this method was [^14 C]-testosterone (50 mCi/mmol) (New England Nuclear, Boston, Mass.). An aliquot of the substrate was taken to dryness under a stream of nitrogen. After the addition of 30 μl of ethanol, the testosterone was dissolved in an appropriate volume of media.
Sample Preparation:The test compounds were brought up in absolute ethanol in order to achieve the desired concentration. Subsequent dilutions of the test compounds with media were performed by the Biomek 1000 Automated Laboratory Workstation (Beckman Instruments, Palo Alto, Calif.). The existing media in the sample wells was aspirated and replaced with fresh media. Test compound was then added to the wells followed by the addition of 0.5 ml of substrate. The volume of the incubation mixture was maintained at 2.0 ml. The final substrate concentration was 12 μM. The concentration of the test compounds ranged from 0.001-150 μM. An additional three wells (background) containing media and substrate but no cells were also included to account for the non-enzymatic metabolism of the substrate. The plates were returned to the incubator and incubated for four hours.
At the end of the incubation the media was collected and transferred to an extraction tube containing 5 ml of toluene-ethanol (9:1), to which has been added 20-250 μg each. of unlabeled carrier steroids (estriol, estradiol, estrone, 5α-androstan-3α,17β-diol, 5α-androstan-3β,17β-diol, -androstene-3,17-dione, 5α-androstan-3,17-dione, testosterone, and 5α-dihydrotestosterone) (Steraloids, Inc., Wilton, N.H.). In the case of Assay Method I the extraction tube also contained 1,000 and 10,000 dpm of [4-^14 C]-dihydrotestosterone (50-60 mCi/mmol) and [4-^14 C]-testosterone (50 mCi/mmol) (New England Nuclear, Boston, Mass.), respectively. The [^14 C]-steroids were included as recovery standards to quantify procedural losses. A small amount of NaCl was also added to the extraction tubes to prevent foaming. The samples were vortexed for approximately 30 seconds and then centrifuged for 10 minutes at 500×g. The organic phase was collected and the samples taken to dryness, redissolved in dichloromethane-methanol (9:1) and were analyzed by thin layer chromatography using one of the methods described below.
Chromatography Method I (two-dimensional):The extracted samples were appled to silica gel 60F254, 0.25 mm thick, thin layer chromatography plates (EM Science, Cincinnati, Ohio). The plates were developed in the first dimension with a solvent system containing dichloromethaneethyl acetate-methanol-acetic acid (160:38:1.5:0.5, Mallinckrodt Inc., Paris, Ky.).

For `COc1ccc(CN2C(=O)CC[C@@]3(C)c4ccc(Cl)cc4CC[C@H]23)cc1` (relative stereo) [Example 44, Trans-4-(4-methoxybenzyl)-8-chloro-10b-methyl-1,2,3,4,4a,5,6,10b-octahydrobenzo[f]quinolin-3-one], at 0.316 µM the inhibition was 5.7%.
In the case of `O=C1CC[C@H]2c3cc([N+](=O)[O-])ccc3CC[C@@H]2N1` (relative stereo) [Example 46, trans-dl-9-nitro-1,2,3,4,4a,5,6,10b-octahydrobenzo[f]quinolin-3-one], 15 µM produced 69.9% inhibition.
With `CN1C(=O)CC[C@H]2c3ccc(Br)cc3C(C)(C)C[C@@H]21` (relative stereo) [Example 28, trans-dl-8-bromo-4,6,6-trimethyl-1,2,3,4,4a,5,6,10b-ocathydrobenzo[f]quinolin-3-one], the inhibition (usually how much of the control response was suppressed) at 0.316 µM turned out to be 78%.
`C[C@H]1C[C@@H]2c3ccc(Cl)cc3CC[C@H]2N(C)C1=O` (relative stereo) [Example 26B, trans-dl-8-chloro-2-(β-methyl)-4-methyl-1,2,3,4,4a,5,6,10b-octahydrobenzo[f]quinolin-3-one]: at 0.316 µM the inhibition was 76.4%.
On the same count and under the same terms, in the case of `C[C@]12CCC(=O)N[C@@H]1CCc1cc(Cl)ccc12` (relative stereo) [Example 40, Trans-8-chloro-10b-methyl-1,2,3,4,4a,5,6,10-octhydrobenzo[f]-quinolin-3-one] it was 25.6%.
For `CN1C(=O)CC[C@@]2(C)c3ccccc3CC[C@H]12` (relative stereo) [Example 37, trans-dl-4,10b-dimethyl-1,2,3,4,4a,5,6,10b-octahydrobenzo[f]quinolin-3-one], the inhibition at 1 µM was 40%.
As to `CN1C(=O)CC[C@H]2c3ccccc3CC[C@H]21` (relative stereo) [Example 13, cis-dl-4-methyl-1,2,3,4,4a,5,6,10b-octahydrobenzo[f]quinolin-3-one], at 1 µM the inhibition was 32%.
`C[C@]12CCC(=O)N[C@H]1CCc1cc(Cl)ccc12` (relative stereo) [Example 41, cis-8-chloro-10b-methyl-1,2,3,4,4a,5,6,10-octahydrobenzo[f]quinolin-3-one] came in with an inhibition at 15 µM of 58.4%.
As to `CN1C(=O)CC[C@H]2c3ccc(Cl)cc3CC[C@@H]21` (relative stereo) [Example 6, trans-dl-8-chloro-4-methyl-1,2,3,4,4a,5,6,10b-octahydrobenzo[f]quinolin-3-one], testing at 1 µM gave an inhibition of 100%.
The same measure, in the same setting: in the case of `CN1C(=O)CC[C@H]2c3ccccc3CC[C@@H]21` (relative stereo) [Example 12, trans-dl-4-methyl-1,2,3,4,4a,5,6,10b-octahydrobenzo[f]quinolin-3-one] it was 78.7%.
For `CN1C(=O)CC[C@H]2c3ccc(Br)cc3C(C)(C)C[C@H]21` (relative stereo) [Example 29, cis-dl-8-bromo-4,6,6-trimethyl-1,2,3,4,4a,5,6,10b-octahydrobenzo[f]quinolin-3-one], 0.316 µM produced 56.1% inhibition.
Consider `C[C@@H]1C[C@@H]2c3ccc(Cl)cc3CC[C@H]2N(C)C1=O` (relative stereo) [Example 26A, trans-dl-8-chloro-2-(α-methyl)-4-methyl-1,2,3,4,4a,5,6,10b-octahydrobenzo[f]quinolin-3-one], for which at 0.316 µM the inhibition was 82.6%.
On to `CN1C(=O)CC[C@]2(C)c3ccc(Cl)cc3CC[C@H]12` (relative stereo) [Example 35, cis-dl-8-chloro-4,10b-dimethyl-1,2,3,4,4a,5,6,10b-octahydrobenzo[f]quinolin-3-one], for which the inhibition at 1 µM is 76.2%.
